What all share (format): functional
For test [1], the system named is Staphylococcus aureus. Briefly: Antibacterial activity against Staphylococcus aureus UPCC 1143 assessed as activity index at 30 ug by agar well method relative to control.
Test [2] relates to Bacillus subtilis. Briefly: Antibacterial activity against Bacillus subtilis UPCC 1295 at 30 ug by agar well method. The conditions noted are these: read-out: IZ.
In test [3] the test system is Bacillus subtilis. As to the kind of experiment: Antibacterial activity against Bacillus subtilis UPCC 1295 assessed as activity index at 30 ug by agar well method relative to control.
The subject of test [4] is Pseudomonas aeruginosa. Briefly: Antibacterial activity against Pseudomonas aeruginosa UPCC 1244 at 30 ug by agar well method. The note with it: read-out: IZ.
Test [5] relates to Pseudomonas aeruginosa. As to the kind of experiment: Antibacterial activity against Pseudomonas aeruginosa UPCC 1244 assessed as activity index at 30 ug by agar well method relative to control.
Test [6] relates to Staphylococcus aureus. Briefly: Antibacterial activity against Staphylococcus aureus UPCC 1143 at 30 ug by agar well method. The note with it: read-out: IZ.
Test [7] concerns Escherichia coli. Briefly: Antibacterial activity against Escherichia coli UPCC 1195 at 30 ug by agar well method. The note with it: read-out: IZ.
For test [8], the system named is Escherichia coli. Briefly: Antibacterial activity against Escherichia coli UPCC 1195 assessed as activity index at 30 ug by agar well method relative to control.
The subject of test [9] is Candida albicans. Briefly: Antimicrobial activity against Candida albicans UPCC 2168 at 30 ug by agar well method. The note with it: read-out: IZ.
The test system of test [10] is Aspergillus niger. As to the kind of experiment: Antimicrobial activity against Aspergillus niger UPCC 4219 assessed as activity index at 30 ug by agar well method relative to control.
Test [11] relates to Trichophyton mentagrophytes. As to the kind of experiment: Antimicrobial activity against Trichophyton mentagrophytes UPCC 4193 at 30 ug by agar well method. The conditions noted are these: read-out: IZ.
Test [12] concerns Candida albicans. As to the kind of experiment: Antimicrobial activity against Candida albicans UPCC 2168 assessed as activity index at 30 ug by agar well method relative to control.
The test system of test [13] is Trichophyton mentagrophytes. As to the kind of experiment: Antimicrobial activity against Trichophyton mentagrophytes UPCC 4193 assessed as activity index at 30 ug by agar well method relative to control.
The subject of test [14] is Aspergillus niger. Briefly: Antimicrobial activity against Aspergillus niger UPCC 4219 at 30 ug by agar well method. The conditions noted are these: read-out: IZ.

On to `O=C(N[C@H](CO)[C@H](O)c1ccc([N+](=O)[O-])cc1)C(Cl)Cl` [CHLORAMPHENICOL], for which the Activity_index worked out at 3.2 with Staphylococcus aureus [1], 2.3 in the test on Bacillus subtilis [3], 1.3 in the test on Pseudomonas aeruginosa [5] and 2.8 with Escherichia coli [8]. For the same compound, the zone of inhibition at 30 µg/disc with Bacillus subtilis [2] is 20 mm; in the test on Pseudomonas aeruginosa [4] it was 14 mm; in the test with Staphylococcus aureus [6] it was 25 mm; in the test with Escherichia coli [7] it was 23 mm.

As to `O=C1C[C@@]2(CO1)CO[C@@]1(CO)CC(=O)O[C@@H]21` [LAPPACEOLIDE A], the zone of inhibition at 30 µg/disc turned out to be 13 mm in the test on Candida albicans [9]; 12 mm in the test with Pseudomonas aeruginosa [4]; 14 mm in test [11]; 12 mm in the test on Aspergillus niger [14]; 11 mm with Staphylococcus aureus [6]; 11 mm in the test on Escherichia coli [7]. The Activity_index was found to be 0.1 in the test with Staphylococcus aureus [1]; 0.2 in the test with Aspergillus niger [10]; 0 with Bacillus subtilis [3]; 0.2 in the test on Pseudomonas aeruginosa [5]; 0.3 in the test with Candida albicans [12]; 0.4 in test [13]. The Activity_index in the test on Escherichia coli [8] worked out at 0.1.

For `O=C1C[C@]2(CO1)CO[C@@]1(CO)CC(=O)O[C@@H]21` [LAPPACEOLIDE B], the zone of inhibition at 30 µg/disc with Candida albicans [9] amounted to 13 mm; in the test with Pseudomonas aeruginosa [4] it was 12 mm; in [11], 13 mm; with Aspergillus niger [14] it was 11 mm; in the test with Staphylococcus aureus [6], 11 mm; in the test with Escherichia coli [7], 11 mm. Also, the Activity_index with Staphylococcus aureus [1] was found to be 0.1; in the test with Aspergillus niger [10], 0.1; with Bacillus subtilis [3], 0; in the test on Pseudomonas aeruginosa [5], 0.2; in the test on Candida albicans [12] it was 0.3; in test [13] it was 0.3. Besides, the Activity_index in the test with Escherichia coli [8] is on record as 0.1.
